Results published in publication PMC6934184, “Selective DNA-PKcs inhibition extends the therapeutic index of localized radiotherapy and chemotherapy” (The Journal of Clinical Investigation, 2019).

Target: T1, PIK3CG (p110 gamma) (Homo sapiens, UniProt P48736)
T1 construct: purchased Thermo Fisher Scientific (Life Technologies) SelectScreen
Test: SelectScreen Adapta
Format: biochemical
In short: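 SelectScreen broad panel; activity (Z'LYTE, Adapta) plus binding formats. ATP: Km app for CSF1R Z'LYTE; 10 for CAMK1 Adapta. Readout = % per kinase.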

T1 sequence (P48736 whole entry): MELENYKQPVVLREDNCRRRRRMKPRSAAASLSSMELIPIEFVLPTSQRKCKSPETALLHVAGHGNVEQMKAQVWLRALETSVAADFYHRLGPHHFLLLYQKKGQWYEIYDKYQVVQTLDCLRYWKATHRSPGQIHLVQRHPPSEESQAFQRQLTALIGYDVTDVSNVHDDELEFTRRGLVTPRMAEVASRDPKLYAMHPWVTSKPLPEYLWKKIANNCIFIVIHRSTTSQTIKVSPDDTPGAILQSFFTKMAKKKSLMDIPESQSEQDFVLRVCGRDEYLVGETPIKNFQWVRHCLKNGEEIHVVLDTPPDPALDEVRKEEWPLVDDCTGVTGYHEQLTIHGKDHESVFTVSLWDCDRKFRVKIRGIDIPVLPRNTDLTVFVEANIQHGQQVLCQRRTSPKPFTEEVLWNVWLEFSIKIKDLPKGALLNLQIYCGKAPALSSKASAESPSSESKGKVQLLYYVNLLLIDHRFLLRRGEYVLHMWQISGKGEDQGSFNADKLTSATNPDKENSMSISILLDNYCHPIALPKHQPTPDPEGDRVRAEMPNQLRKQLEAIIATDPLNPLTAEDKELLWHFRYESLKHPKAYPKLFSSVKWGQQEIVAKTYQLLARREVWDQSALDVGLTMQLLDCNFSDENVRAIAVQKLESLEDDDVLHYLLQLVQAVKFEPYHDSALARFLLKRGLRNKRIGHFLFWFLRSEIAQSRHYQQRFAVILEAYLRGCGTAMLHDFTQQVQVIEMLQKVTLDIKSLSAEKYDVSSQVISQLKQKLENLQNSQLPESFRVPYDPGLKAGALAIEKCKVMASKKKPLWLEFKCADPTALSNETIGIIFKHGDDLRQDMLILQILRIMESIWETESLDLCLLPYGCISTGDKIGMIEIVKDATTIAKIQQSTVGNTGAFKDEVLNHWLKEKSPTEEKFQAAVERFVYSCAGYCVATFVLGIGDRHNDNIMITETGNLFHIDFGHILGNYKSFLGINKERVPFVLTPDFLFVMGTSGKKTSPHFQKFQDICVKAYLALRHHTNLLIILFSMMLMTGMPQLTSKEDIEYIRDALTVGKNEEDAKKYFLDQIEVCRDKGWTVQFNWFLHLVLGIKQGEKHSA

## CN(C(=O)CN1CCOCC1)c1ccc2sc3c(-c4cccc5c(=O)cc(N6CC7CCC(C6)O7)oc45)cccc3c2c1 [NU5455]
  inhibition at 1 µM: 2.9%
